In patent US5508424A, “4-arylisoindole analgesics” (Ortho Pharmaceutical Corporation, priority 1993, dated 1996) one finds inhibition in vivo and ED50 data, which are given here for 19 molecules.

Like-named read-outs stand apart in the source and are kept apart here.

The assay relates to Acetylcholine-Bromide Induced Abdominal Constriction. Briefly: Mouse Acetylcholine Bromide-Induced Abdominal Constriction Assay. Type of assay: in vivo. The following applies: for inhibition in vivo at 30 mg/kg: @ 30 mpk/po; for ED50: po, dose producing 50% analgesia, probit analysis. The method, then: Mouse Acetylcholine Bromide-Induced Abdominal Constriction Assay
The mouse acetylcholine-induced abdominal constiction assay, as described by Collier et al. in Brit. J. Pharmacol. Chem. Ther., 32: 295-310, 1968, with minor modifications was used to assess analgesic potency of the compounds of formula (I). The test drugs or appropriate vehicle were administered orally (p.o.) and 30 minutes later the animal received an intraperitoneal (i.p.) injection of 5.5 mg/kg acetylcholine bromide (Matheson, Coleman and Bell, East Rutherford, N.J.). The mice were then placed in groups of three into glass bell jars and observed for a ten minute observation period for the occurrence of an abdominal constriction response (defined as a wave of constriction and elongation passing caudally along the abdominal wall, accompanied by a twisting of the trunk and followed by extension of the hind limbs). The percent inhibition of this response to a nociceptive stimulus (equated to % analgesia) was calculated as follows: The % Inhibition of response, i.e., % analgesia is equal to the difference between the No. of control animals response and the No. of drug-treated animals response times 100 divided by the No. of control animals responding.
At least 15 animals were used for control and in each of the drug treated groups. At least three doses were used to determine each dose response curve and ED50 (that dose which would produce 50% analgesia). The ED50 values and their 95% fiducial limits were determined by a computer assisted probit analysis.

Setting [1] is: Mus musculus, 0.5 h, acetylcholine bromide 5.5 mg/kg i.p. 30 min after drug, % analgesia.

In the case of `COc1cccc([C@@H]2CCC[C@H]3CN(C)C[C@H]32)c1` (relative stereo) [Cp-1], the inhibition in vivo at 30 mg/kg under setting [1] was in the range of 30 to 40%. Same read-out and setting: to `COc1cccc([C@@H]2CCC[C@@H]3CN(Cc4ccccc4)C[C@H]32)c1` (relative stereo) [Cp-6] belongs 13.3%.

As to `CN1C[C@H]2CCC[C@@H](c3cccc(C(F)(F)F)c3)[C@@H]2C1` (relative stereo) [Cp-7, 3aα, 4α,7aβ-Octahydro-2-methyl-4-(3-trifluoromethylphenyl)-1H-isoindole Monofumarate], the ED50 (Mus musculus, read-out: ED50) amounted to 7.46 mg/kg. The molecule `COc1cccc([C@@H]2CCC[C@H]3CN(C)C[C@H]32)c1OC` (relative stereo) [Cp-8] displayed an inhibition in vivo at 30 mg/kg under setting [1] of 78.8%.

With `CN1C[C@H]2CCC[C@@H](c3ccccc3)[C@@H]2C1` (relative stereo) [Cp-13], the ED50 (Mus musculus, read-out: ED50) came out at 8.35 mg/kg. Same read-out and setting: to `CN1C[C@H]2CCC[C@H](c3ccc(Cl)c(Cl)c3)[C@@H]2C1` (relative stereo) [Cp-14] belongs 2.8 mg/kg. On the same count and under the same terms, the figure for `CN1C[C@H]2CCC[C@@H](c3ccc(Cl)c(Cl)c3)[C@@H]2C1` (relative stereo) [Cp-15] is 7 mg/kg.

In the case of `CN1C[C@H]2CCC[C@@H](c3ccc(C(F)(F)F)cc3)[C@@H]2C1` (relative stereo) [Cp-16], for the setting “Mus musculus, read-out: ED50”, the ED50 turned out to be 4.6 mg/kg. `CN1C[C@H]2CCC[C@H](c3ccc(C(F)(F)F)cc3)[C@@H]2C1` (relative stereo) [Cp-17] gave an inhibition in vivo at 3 mg/kg (Mus musculus, 0.5 h, @ 3 mpk/po, acetylcholine bromide 5.5 mg/kg i.p. 30 min after drug, % analgesia) of 33%. `FC(F)(F)c1ccc([C@H]2CCC[C@@H]3CN(CCC(c4ccccc4)c4ccccc4)C[C@H]32)cc1` (relative stereo) [Cp-22]: the inhibition in vivo at 30 mg/kg under setting [1] came out at 13.3%. On to `Cc1cccc([C@@H]2CCC[C@@H]3CN(C)C[C@H]32)c1` (relative stereo) [Cp-24, 3aα,7aβ Octahydro-2-methyl-4α-(3-methylphenyl)-1H-isoindole Monofumarate], for which the ED50 (Mus musculus, read-out: ED50) stood at 23.6 mg/kg. Under setting [1], `CN1C[C@@H]2CCC[C@@H](c3ccc(Br)cc3)[C@@H]2C1` (relative stereo) [Cp-34] displayed an inhibition in vivo at 30 mg/kg of 100%. As to `Clc1ccc([C@H]2CCC[C@H]3CNC[C@H]32)cc1Cl` (relative stereo) [Cp-35, 4β-(3,4-dichlorophenyl)-3aα,7aα-octahydro-1H-isoindole], the ED50 (Mus musculus, read-out: ED50) stood at 9.63 mg/kg. Take `CN1C[C@@H]2CCC[C@H](c3ccccc3)[C@@H]2C1` (relative stereo) [Cp-43]: under “Mus musculus, read-out: ED50”, the ED50 is 4.9 mg/kg. Still for that read-out and setting: the figure for `CN1C[C@@H]2CCC[C@H](c3ccc(Br)cc3)[C@@H]2C1` (relative stereo) [Cp-44, 4β-bromophenyl-2-methyl-3aα,7aα-octahydro-1H-isoindole] is 9.15 mg/kg. `CN1C[C@@H]2CCC[C@H](c3ccc(Cl)c(Cl)c3)[C@@H]2C1` (relative stereo) [Cp-46] displayed an inhibition in vivo at 30 mg/kg under setting [1] of 100%. In turn, `Cc1cccc(C2CCCC3CN(C)CC32)c1.O=C(O)/C=C/C(=O)O` (single isomer, unassigned; (-)) [Cp-24-, (-)3aα,7aβ Octahydro-2-methyl-4α-(3-methylphenyl)-1H-isoindole Monofumarate] yielded an ED50 of 24.9 mpk. `CCCCN1CC2CCCC(c3cccc(C(F)(F)F)c3)C2C1` (stereo not shown) [Cp-18] displayed an inhibition in vivo at 30 mg/kg under setting [1] of 66.7%. On to `Cc1cccc([C@@H]2CCC[C@@H]3CN(C)C[C@@H]32)c1.O=C(O)/C=C/C(=O)O` [Cp-24+, (+)3aα,4α,7aβ Octahydro-2-methyl-4-(3-methylphenyl)-1H-isoindole Monofumarate], for which the ED50 is given as 21.6 mpk.

A word on the inhibition in vivo: it is the drop in the measured response relative to a control, in per cent.
